Publication PMC13222238, “Development of a gut microbiota model for the analysis of bacterial modifications of xenobiotics” (Applied Microbiology and Biotechnology, 2026)

Assays:
[1] = system: sterile-filtered fecal exoenzyme fraction; experiment: Xenobiotic depletion in the sterile-filtered fecal exoenzyme fraction; type: in vitro ADME, human; conditions: anaerobic, 24 h
Protocol: (§1) To further purify the extracellular enzyme (exoenzyme) fraction, the supernatant was centrifuged at 18,000 × g for 3 min at 4 °C. The resulting preparation was then sterile-filtered three times through 0.22-µm syringe filters to ensure complete removal of remaining microbial cells. The sterile exoenzyme fraction was stored anaerobically at −70 °C until further use. The middle layer, which contained the gut bacteria, was collected and referred to as the bacterial colon model. The isolated microbiota was then diluted in sterile 50% (v/v) glycerol and stored at −70 °C under anaerobic conditions.
(§2) To enable parameter-based comparison of compound conversion across incubation matrices, apparent first-order kinetic parameters were calculated from precursor compound depletion data. Only quantifiable time points were considered. Because these values represent apparent kinetic estimates derived from a limited number of sampling points, they were interpreted primarily for comparative purposes. Detailed experimental conditions and analytical parameters are provided in Supplementary Tab. S2.
(§3) To evaluate the metabolic capabilities of the human colon model presented here, a panel of structurally diverse xenobiotics was selected based on microbial biotransformation reactions reported in the literature (Fig. 7, Supplementary Fig. S2). […] Together, these reference substrates served as model compounds covering major gut microbial transformation chemistries, enabling a matrix-to-matrix performance evaluation of the colon model. […] Product levels were estimated using the nitrendipine calibration and are therefore semi-quantitative.
(§4) Table S1: Composition of the modified SHIME®-based regeneration media.
(§5) To evaluate microbial xenobiotic metabolism under defined conditions, incubations were conducted using model substrates representing major biotransformation classes: 4- […]
(§6) reduction), and nitrendipine (nitro group reduction). Reaction mixtures were prepared under […]
(§7) rich substrate formulation with 1 g L-1 mucin, pectin, and xylan (substrate control), (ii) 150 µL pooled fecal suspension (three individual pools with n = 3 donors each, 1:10 diluted in SHIME® saline) + 60 µL fiber-rich substrate, (iii) 300 µL pooled exoenzyme fraction (three individual pools with n = 3 donors each, 1:10 in SHIME® saline), and (iv) 150 µL bacterial colon model + 60 µL fiber-rich substrate. All incubations contained 500 µM of the respective test compound.
(§8) At defined time points, samples were mixed 1:1 (v/v) with ethanol, vortexed, and centrifuged […]
(§9) (18,000 × g, 3 min). The resulting supernatant was combined 1:1 (v/v) with acetonitrile (100 %) […]
(§10) The clarified supernatant was diluted with the mobile phase prior to injection. Non-polar and UV-absorbing compounds were analyzed on a Knauer Eurospher II C8 column (250 × 4 mm, 5 µm) with a C8 guard cartridge using an AZURA CT 2 system (Knauer, Berlin, Germany) equipped with a SpectraSystem SCM1000 degasser, P4000 pump, AS3000 autosampler, and UVD 2.1L detector. Paracetamol was analyzed on a Shodex Asahipak NH2P-50 3E column (Showa Denko, Japan) with a corresponding guard column and an RI- […]
(§11) Chromatographic parameters, including mobile-phase composition, column temperature, flow rate, and detection wavelength are summarized in Suppl. Tab. S1. Quantification of parent compounds and metabolites was performed by […]

bacterial colon model = experiment: in vitro; conditions: for apparent first-order rate constant (k): 500 µM
Protocol: (§12) Our model was based on the isolation of intact bacterial communities from human feces. Bacterial isolation was performed using a modified density gradient centrifugation protocol first described by Hevia et al. ([2015]). To detach bacteria adhering to particulate matter and embedded within fecal biofilms, 0.001% (w/v) cetyltrimethylammonium bromide (CTAB) was added to each diluted fecal sample 30 min prior to further processing (Macfarlane et al. [1997]). All steps involving open sample handling were conducted under strictly anaerobic conditions (79% N2, 19% CO2, 2% H2) within a vinyl anaerobic chamber (Coy Laboratory Products, Grass Lake, Michigan, USA). Samples from three donors were randomly pooled for each preparation to reduce variability among individuals. From each pooled and diluted fecal suspension, 15 mL were layered onto 3.5 mL of 55% (w/v) Nycodenz® (Serumwerk Bernburg AG, Bernburg, Germany) in anaerobic centrifuge tubes. The samples were then centrifuged at 4000 × g for 30 min at room temperature.
(§13) To further purify the extracellular enzyme (exoenzyme) fraction, the supernatant was centrifuged at 18,000 × g for 3 min at 4 °C. The resulting preparation was then sterile-filtered three times through 0.22-µm syringe filters to ensure complete removal of remaining microbial cells. The sterile exoenzyme fraction was stored anaerobically at −70 °C until further use. The middle layer, which contained the gut bacteria, was collected and referred to as the bacterial colon model. The isolated microbiota was then diluted in sterile 50% (v/v) glycerol and stored at −70 °C under anaerobic conditions. Prior to use in experiments, the cryopreserved cells were washed three times with modified SHIME® saline (18,000 × g, 3 min, 4 °C) to remove any remaining Nycodenz®, glycerol, and particulate material. The final cell suspension was adjusted to an optical density at 600 nm (OD600) of 10, corresponding to approximately 1.43 × 10^10 cells mL^−1, as determined microscopically using a Neubauer counting chamber (Hager et al. [2025]). This microbial density was about 16% of the mean in vivo bacterial concentration in the human colon, estimated at 8.8 × 10^10 cells mL^−1 (assuming a fecal density of 1.04 g mL^−1 (Sender et al. [2016])).
as §2
(§14) To evaluate the metabolic capabilities of the human colon model presented here, a panel of structurally diverse xenobiotics was selected based on microbial biotransformation reactions reported in the literature (Fig. 7, Supplementary Fig. S2). […] Together, these reference substrates served as model compounds covering major gut microbial transformation chemistries, enabling a matrix-to-matrix performance evaluation of the colon model. All compounds were incubated anaerobically for 24 h with pooled human fecal slurry, the bacterial colon model, and the sterile-filtered fecal exoenzyme fraction, derived from three independent donor pools (n = 3 each).

[2] = system: pooled human fecal slurry; experiment: Xenobiotic depletion in pooled human fecal slurry, anaerobic incubation
Protocol: as §2, §3, §4, §5, §6, §7, §8, §9, §10
(§15) Chromatographic parameters, including mobile-phase composition, column temperature, flow rate, and detection wavelength are summarized in Suppl. Tab. S1. Quantification of parent compounds and metabolites was performed by external calibration using analytical reference standards.
(§16) Table S2: Chromatographic conditions for HPLC-based detection of selected xenobiotics and their microbial transformation products. Analytes were separated on either C8 or amino columns under compound-specific conditions. Mobile phases consisted of acetonitrile (ACN) with acidic modifiers and were operated under isocratic flow. Detection wavelengths correspond to the absorbance maxima […]
(§17) Column Mobile phase Tempera Flow rate UV detection […]

[3] = Xenobiotic depletion in buffer (SHIME saline with fiber-rich substrate, substrate control)
Protocol: as §2, §4, §5
as §7, with “reduction), and nitrendipine (nitro group reduction). Reaction mixtures were prepared under anaerobic conditions (37°C, 24 h) as follows: (i) 210 µL SHIME® saline containing the fiber-rich substrate formulation” for “rich substrate formulation”
as §8, §9
The clarified supernatant was diluted with the mobile phase prior to injection. Non-polar and UV-absorbing compounds were analyzed on a Knauer Eurospher II C8 column (250 × 4 mm, 5 µm) with a C8 guard cartridge using an AZURA CT 2 system (Knauer, Berlin, Germany) equipped with a SpectraSystem SCM1000 degasser, P4000 pump, AS3000 autosampler, and UVD 2.1L detector. Paracetamol was analyzed on a Shodex Asahipak NH2P-50 3E column (Showa Denko, Japan) with a corresponding guard column and an RI-101 detector (Ercatech AG, Germany). Chromatographic parameters, including mobile-phase composition, column temperature, flow rate, and detection wavelength are summarized in Suppl. Tab. […]. Quantification of parent compounds and metabolites was performed by external calibration using analytical reference standards.
as §16, §17
To confirm the identity of selected biotransformation products, representative samples were analyzed by liquid chromatography-mass spectrometry (LC-MS). Samples were mixed 1:1 (v/v) with ethanol and centrifuged (18,000 × g, 5 min). From the resulting supernatant, 50 µL were diluted in 450 µL H₂O: ACN (70:30, v/v). Prior to analysis, samples were filtered through

[4] = Xenobiotic depletion in the sterile-filtered fecal exoenzyme fraction; type: in vitro ADME, human; conditions: human, sterile-filtered fecal exoenzyme fraction (cell-free), 500 µM test compound, anaerobic, 37°C, 24 h, three donor pools, read-out: half-life (t1/2) (converted)
Protocol: as §1, §2, §3, §4, §5, §6, §7, §8, §9, §10, §11

[5] = Xenobiotic depletion in the bacterial colon model, anaerobic incubation; conditions: human
Protocol: as §12, §13, §2, §14

in vitro = conditions: human
Protocol: as §2, §3, §4, §5, §6, §7, §8, §9, §10, §15, §16, §17

[6] = 500 µM test compound, 37°C, three donor pools
[7] = fecal slurry, 500 µM test compound, anaerobic, 37°C, 24 h, three donor pools
[8] = buffer, 500 µM test compound, anaerobic, 37°C, 24 h

| Structure (SMILES) | apparent first-order rate constant (k) [1, 6] [h⁻¹] | half-life (t1/2) [1, 6] [min] | conversion in the exoenzyme fraction (in words) [1] | conversion in the exoenzyme fraction (in words) ([1]; listed as 4-acetoxyacetanilide) | conversion in the bacterial colon model (in words) (bacterial colon model) | half-life (t1/2) (bacterial colon model; human) [min] | conversion in fecal slurry (in words) ([2]; fecal slurry, anaerobic, 24 h) | apparent first-order rate constant (k) [2, 7] [h⁻¹] | half-life (t1/2) [2, 7] [min] | apparent first-order rate constant (k) [3, 8] [h⁻¹] | half-life (t1/2) [3, 8] [h] | half-life at 500 µM [4] [h] | apparent first-order rate constant (k) (bacterial colon model; human) [h⁻¹] | half-life at 500 µM [5] [h] | apparent first-order rate constant (k) ([2]; human, 500 µM) [h⁻¹] | half-life at 500 µM (in vitro) [h] | half-life at 500 µM ([3]; buffer) [h] | apparent first-order rate constant (k) ([3]; 500 µM) [h⁻¹] |
| --- | --- | --- | --- | --- | --- | --- | --- | --- | --- | --- | --- | --- | --- | --- | --- | --- | --- | --- |
| CC(=O)Nc1ccc(OC(C)=O)cc1 [4-Acetoxyacetanilide, 4-acetoxyacetanilide] | 13.46 | 3 | clear hydrolytic activity | relevant activity | rapidly degraded | 1.8 | rapidly degraded | 15.38 | 3 | 0.02 | > 24 | – | – | – | – | – | – | – |
| O=C(N[C@H](CO)[C@H](O)c1ccc([N+](=O)[O-])cc1)C(Cl)Cl [Chloramphenicol, chloramphenicol] | 0.003 | – | – | – | – | – | – | – | – | – | – | > 24 | 0.47 | 1.47 | 0.45 | 1.54 | > 24 | – |
| CCOC(=O)C1=C(C)NC(C)=C(C(=O)OC)C1c1cccc([N+](=O)[O-])c1 (centres unmarked) [Nitrendipine, nitrendipine] | 0.002 | – | no relevant conversion | – | – | – | – | – | – | – | – | > 24 | 0.92 | 0.75 | 0.44 | 1.58 | > 24 | 0.0009 |
| CC(=O)OCC(=O)NCCCOc1cccc(CN2CCCCC2)c1 [Roxatidine-acetate, roxatidine-acetate] | 0.16 | – | – | – | – | – | – | – | – | – | – | 4.33 | 1.13 | 0.61 | 1.16 | 0.6 | > 24 | 0.005 |
| O=C(O)c1cc(/N=N/c2ccc(S(=O)(=O)Nc3ccccn3)cc2)ccc1O [Sulfasalazine, sulfasalazine] | 0.003 | – | – | – | – | – | – | – | – | – | – | > 24 | 1.20 | – | 0.93 | – | > 24 | 0.002 |
| CC1=C(CC(=O)O)c2cc(F)ccc2/C1=C\c1ccc([S+](C)[O-])cc1 (centres unmarked) [Sulindac, sulindac] | 0.003 | – | no meaningful conversion | – | – | – | – | – | – | – | – | > 24 | 0.20 | 3.47 | 0.12 | 5.78 | > 24 | 0.0003 |
